The target in one assay is T1, rat CB2 receptors (Rattus norvegicus, UniProt Q9QZN9).
T1 construct: expressed in transfected cells; membrane preparation
T1 sequence (Q9QZN9 1-360): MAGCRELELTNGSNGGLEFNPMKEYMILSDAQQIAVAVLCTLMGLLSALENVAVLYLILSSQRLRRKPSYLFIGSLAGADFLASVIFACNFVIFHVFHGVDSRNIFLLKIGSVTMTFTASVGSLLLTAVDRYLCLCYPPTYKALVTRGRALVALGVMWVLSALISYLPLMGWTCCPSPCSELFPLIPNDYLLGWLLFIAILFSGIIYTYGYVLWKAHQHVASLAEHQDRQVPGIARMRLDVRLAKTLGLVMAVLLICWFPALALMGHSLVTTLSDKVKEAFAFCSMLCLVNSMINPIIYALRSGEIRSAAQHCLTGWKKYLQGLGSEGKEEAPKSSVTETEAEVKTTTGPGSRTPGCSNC
Description: CB2 radioligand binding assay ([3H]CP 55,940 competition), rat.

For another assay, the target named is T2, human CB2 receptors (Homo sapiens, UniProt P34972).
T2 construct: expressed in transfected cells; membrane preparation
T2 sequence (P34972 whole entry): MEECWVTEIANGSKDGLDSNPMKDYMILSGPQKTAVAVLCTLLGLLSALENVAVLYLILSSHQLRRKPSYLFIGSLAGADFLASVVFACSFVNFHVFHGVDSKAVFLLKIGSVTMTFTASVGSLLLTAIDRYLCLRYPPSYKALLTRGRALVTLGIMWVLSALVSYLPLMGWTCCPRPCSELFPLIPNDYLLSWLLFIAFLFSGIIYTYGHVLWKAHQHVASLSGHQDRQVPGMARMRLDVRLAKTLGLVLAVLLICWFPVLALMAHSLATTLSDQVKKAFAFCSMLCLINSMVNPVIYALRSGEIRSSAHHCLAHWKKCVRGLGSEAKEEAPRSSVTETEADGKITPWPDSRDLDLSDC
Description: CB2 radioligand binding assay ([3H]CP 55,940 competition), human.

Where two headings read alike, the source gives them in different places.

The term Ki denotes a measure of affinity in units of concentration, obtained from inhibition or displacement. Regarding `CCCCn1/c(=N/C(=O)c2cc(C(F)(F)F)ccc2OC[C@H](C)O)sc2ncnc(O)c21` [Example 1, N-[(2Z)-1-butyl-7-hydroxy[1,3]thiazolo[5,4-d]pyrimidin-2(1H)-ylidene]-2-{[(2S)-2-hydroxypropyl]oxy}-5-(trifluoromethyl)benzamide], the Ki was determined as 157 nM on rat CB2 receptors (membranes of HEK293 cells stably expressing rat CB2, 0.5 nM [3H]CP 55,940, read-out: rat CB2 binding (Ki)) and 233 nM at human CB2 receptors (membranes of HEK293 cells stably expressing human CB2, 0.5 nM [3H]CP 55,940, read-out: human CB2 binding (Ki)).

On to `CCCCn1/c(=N/C(=O)c2cc(C(F)(F)F)ccc2OC[C@H](C)O)sc2nccnc21` [Example 2, N-[(2Z)-3-butyl[1,3]thiazolo[4,5-b]pyrazin-2(3H)-ylidene]-2-{[(2S)-2-hydroxypropyl]oxy}-5-(trifluoromethyl)benzamide], for which the Ki on rat CB2 receptors was 4.1 nM; on human CB2 receptors, 2 nM.

Consider `CCCCn1/c(=N/C(=O)c2cc(C(F)(F)F)ccc2OC[C@H](C)O)sc2ncncc21` [Example 3, N-[(2Z)-1-butyl[1,3]thiazolo[5,4-d]pyrimidin-2(1H)-ylidene]-2-{[(2S)-2-hydroxypropyl]oxy}-5-(trifluoromethyl)benzamide], for which the inhibition constant Ki on rat CB2 receptors came to 4 nM; on human CB2 receptors, 10 nM.

Consider `CCCCn1/c(=N/C(=O)c2cc(C(F)(F)F)ccc2OC[C@H](C)O)sc2cnn(C)c(=O)c21` [Example 4, N-[(2Z)-3-butyl-5-methyl-4-oxo-4,5-dihydro[1,3]thiazolo[4,5-d]pyridazin-2(3H)-ylidene]-2-{[(2S)-2-hydroxypropyl]oxy}-5-(trifluoromethyl)benzamide], for which the values for the Ki at rat CB2 receptors and on human CB2 receptors were 5 nM and 36 nM, respectively.

Values taken from patent US8586596B2, “Compounds as cannabinoid receptor ligands” (AbbVie Inc., priority 2010, dated 2013).
